Experimental data as given in patent US20260356819A1, “OXOISOINDOLINYL-SUBSTITUTED […] DERIVATIVE AND USE THEREOF” (GLUETACS THERAPEUTICS (SHANGHAI) CO., LTD., priority 2023, published 2026).

Columns and labels:
Type in all cases: cell-based
Details in all cases: compounds at 50 nM and 500 nM
GSPT1 = molecular target: T1, GSPT1 (Homo sapiens, UniProt P15170+Q96SW2); assay: Western blot degradation of GSPT1 in hPBMCs (24 h)
T1 construct: The supernatant was aspirated as the extracted total cell protein; endogenous in cells; host or cells: human peripheral blood mononuclear cells (hPBMCs)
T1 sequence (P15170 whole entry): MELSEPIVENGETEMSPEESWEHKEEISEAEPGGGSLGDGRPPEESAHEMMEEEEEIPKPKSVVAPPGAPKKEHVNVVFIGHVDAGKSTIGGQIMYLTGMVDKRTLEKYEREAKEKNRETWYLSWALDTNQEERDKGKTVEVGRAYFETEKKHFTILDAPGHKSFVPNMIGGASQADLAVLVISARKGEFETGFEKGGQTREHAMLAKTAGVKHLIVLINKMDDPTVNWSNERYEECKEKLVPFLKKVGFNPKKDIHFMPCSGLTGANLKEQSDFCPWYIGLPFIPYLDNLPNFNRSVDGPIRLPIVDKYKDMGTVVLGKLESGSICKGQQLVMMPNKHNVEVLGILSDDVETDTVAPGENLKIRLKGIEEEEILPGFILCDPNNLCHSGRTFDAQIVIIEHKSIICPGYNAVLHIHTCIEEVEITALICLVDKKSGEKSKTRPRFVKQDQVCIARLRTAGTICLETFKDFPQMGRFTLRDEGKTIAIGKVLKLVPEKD
T1 sequence (Q96SW2 whole entry): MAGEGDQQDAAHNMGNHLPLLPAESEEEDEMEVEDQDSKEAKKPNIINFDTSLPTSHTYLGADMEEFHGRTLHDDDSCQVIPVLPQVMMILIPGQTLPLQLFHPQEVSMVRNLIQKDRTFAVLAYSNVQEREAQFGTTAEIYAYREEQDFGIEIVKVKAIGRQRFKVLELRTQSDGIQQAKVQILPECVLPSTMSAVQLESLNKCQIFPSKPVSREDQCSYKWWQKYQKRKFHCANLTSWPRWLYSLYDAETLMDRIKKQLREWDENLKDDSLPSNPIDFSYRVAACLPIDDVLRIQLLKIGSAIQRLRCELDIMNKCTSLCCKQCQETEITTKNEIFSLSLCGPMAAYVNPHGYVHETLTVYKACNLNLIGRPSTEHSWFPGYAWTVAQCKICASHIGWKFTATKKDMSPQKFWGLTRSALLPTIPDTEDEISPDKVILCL
T1 sequence (Q16531 whole entry partner): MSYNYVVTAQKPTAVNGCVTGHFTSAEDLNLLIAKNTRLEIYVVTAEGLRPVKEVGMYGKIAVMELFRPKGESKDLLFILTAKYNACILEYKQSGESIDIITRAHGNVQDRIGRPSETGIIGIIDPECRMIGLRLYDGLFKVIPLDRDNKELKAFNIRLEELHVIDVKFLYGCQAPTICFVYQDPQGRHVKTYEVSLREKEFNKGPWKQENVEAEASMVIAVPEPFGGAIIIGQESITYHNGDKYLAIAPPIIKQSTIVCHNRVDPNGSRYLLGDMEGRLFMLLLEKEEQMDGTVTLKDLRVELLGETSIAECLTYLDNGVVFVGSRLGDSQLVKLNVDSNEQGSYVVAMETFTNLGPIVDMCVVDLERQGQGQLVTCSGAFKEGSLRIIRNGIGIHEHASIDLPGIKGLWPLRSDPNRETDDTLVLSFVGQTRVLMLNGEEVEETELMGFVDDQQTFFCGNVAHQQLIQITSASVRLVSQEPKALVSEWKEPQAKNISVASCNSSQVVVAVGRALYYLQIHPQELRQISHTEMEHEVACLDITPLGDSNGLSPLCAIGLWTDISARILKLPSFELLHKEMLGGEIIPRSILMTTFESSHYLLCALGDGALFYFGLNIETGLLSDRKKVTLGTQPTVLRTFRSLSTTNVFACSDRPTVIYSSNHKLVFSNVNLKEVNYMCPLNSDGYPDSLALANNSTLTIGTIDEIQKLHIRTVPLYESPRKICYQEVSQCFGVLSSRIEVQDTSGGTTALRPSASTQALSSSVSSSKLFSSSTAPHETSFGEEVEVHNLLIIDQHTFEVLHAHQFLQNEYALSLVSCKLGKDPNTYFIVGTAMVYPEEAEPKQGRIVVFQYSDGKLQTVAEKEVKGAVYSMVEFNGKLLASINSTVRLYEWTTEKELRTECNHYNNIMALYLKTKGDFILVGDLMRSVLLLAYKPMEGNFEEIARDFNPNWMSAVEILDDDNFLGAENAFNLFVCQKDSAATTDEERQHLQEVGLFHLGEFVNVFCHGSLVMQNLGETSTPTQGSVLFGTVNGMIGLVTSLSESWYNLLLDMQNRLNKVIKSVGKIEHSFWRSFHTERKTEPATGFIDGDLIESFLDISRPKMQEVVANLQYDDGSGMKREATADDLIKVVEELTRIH
Outline: (§1)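 Western blot densitometry after 24 h treatment of human PBMCs (1×10^6 cells/mL) with 50 nM or 500 nM compound. Remaining target (%) = band intensity over internal-control band, normalized to DMSO; degradation = 1 − remaining; DC50 is the concentration giving half the DMSO band signal.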

IKZF3 = molecular target: T2, IKZF3 (Homo sapiens, UniProt Q96SW2+Q9UKT9); assay: Western blot degradation of IKZF3 in hPBMCs (24 h)
T2 construct: The supernatant was aspirated as the extracted total cell protein; endogenous in cells; host or cells: human peripheral blood mononuclear cells (hPBMCs)
T2 sequence (Q9UKT9 whole entry): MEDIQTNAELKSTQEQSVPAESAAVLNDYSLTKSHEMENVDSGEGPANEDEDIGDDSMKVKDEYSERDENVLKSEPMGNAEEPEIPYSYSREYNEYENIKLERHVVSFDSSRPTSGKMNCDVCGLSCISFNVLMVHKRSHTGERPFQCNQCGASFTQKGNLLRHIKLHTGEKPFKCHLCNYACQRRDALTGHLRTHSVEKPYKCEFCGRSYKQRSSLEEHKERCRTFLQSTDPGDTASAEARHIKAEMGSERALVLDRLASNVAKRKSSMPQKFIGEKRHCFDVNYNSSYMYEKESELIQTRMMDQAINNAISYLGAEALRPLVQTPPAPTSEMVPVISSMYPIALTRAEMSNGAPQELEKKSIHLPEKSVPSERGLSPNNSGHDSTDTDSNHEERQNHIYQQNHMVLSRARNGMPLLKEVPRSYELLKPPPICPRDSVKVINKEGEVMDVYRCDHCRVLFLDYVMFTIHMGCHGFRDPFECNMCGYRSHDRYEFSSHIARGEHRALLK
T2 sequence (Q96SW2 whole entry): as the sequence (Q96SW2 whole entry) above
T2 sequence (Q16531 whole entry partner): as the sequence (Q16531 whole entry partner) above
Outline: as §1

WEE1 = molecular target: T3, WEE1 (Homo sapiens, UniProt P30291+Q96SW2); assay: Western blot degradation of WEE1 in hPBMCs (24 h)
T3 construct: The supernatant was aspirated as the extracted total cell protein; endogenous in cells; host or cells: human peripheral blood mononuclear cells (hPBMCs)
T3 sequence (P30291 whole entry): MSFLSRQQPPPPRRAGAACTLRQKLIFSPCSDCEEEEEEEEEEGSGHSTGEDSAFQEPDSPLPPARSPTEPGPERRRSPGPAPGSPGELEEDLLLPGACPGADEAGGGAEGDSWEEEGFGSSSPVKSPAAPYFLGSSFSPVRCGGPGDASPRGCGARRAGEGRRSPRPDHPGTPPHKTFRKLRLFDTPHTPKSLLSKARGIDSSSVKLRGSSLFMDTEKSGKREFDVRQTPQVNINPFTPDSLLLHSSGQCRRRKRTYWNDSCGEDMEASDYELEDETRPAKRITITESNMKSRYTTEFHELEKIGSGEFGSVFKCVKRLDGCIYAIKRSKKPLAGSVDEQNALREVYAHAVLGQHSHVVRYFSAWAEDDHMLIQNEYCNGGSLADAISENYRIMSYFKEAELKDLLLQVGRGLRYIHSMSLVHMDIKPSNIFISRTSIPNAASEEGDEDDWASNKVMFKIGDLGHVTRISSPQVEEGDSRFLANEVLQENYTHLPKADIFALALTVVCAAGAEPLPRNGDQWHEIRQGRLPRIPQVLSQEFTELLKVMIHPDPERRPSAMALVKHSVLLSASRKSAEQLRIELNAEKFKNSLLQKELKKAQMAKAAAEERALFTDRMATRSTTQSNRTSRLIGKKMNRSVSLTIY
T3 sequence (Q96SW2 whole entry): as the sequence (Q96SW2 whole entry) above
T3 sequence (Q16531 whole entry partner): as the sequence (Q16531 whole entry partner) above
Outline: as §1

IKZF2 = molecular target: T4, IKZF2 (Homo sapiens, UniProt Q96SW2+Q9UKS7); assay: Western blot degradation of IKZF2 in hPBMCs (24 h)
T4 construct: The supernatant was aspirated as the extracted total cell protein; endogenous in cells; host or cells: human peripheral blood mononuclear cells (hPBMCs)
T4 sequence (Q9UKS7 whole entry): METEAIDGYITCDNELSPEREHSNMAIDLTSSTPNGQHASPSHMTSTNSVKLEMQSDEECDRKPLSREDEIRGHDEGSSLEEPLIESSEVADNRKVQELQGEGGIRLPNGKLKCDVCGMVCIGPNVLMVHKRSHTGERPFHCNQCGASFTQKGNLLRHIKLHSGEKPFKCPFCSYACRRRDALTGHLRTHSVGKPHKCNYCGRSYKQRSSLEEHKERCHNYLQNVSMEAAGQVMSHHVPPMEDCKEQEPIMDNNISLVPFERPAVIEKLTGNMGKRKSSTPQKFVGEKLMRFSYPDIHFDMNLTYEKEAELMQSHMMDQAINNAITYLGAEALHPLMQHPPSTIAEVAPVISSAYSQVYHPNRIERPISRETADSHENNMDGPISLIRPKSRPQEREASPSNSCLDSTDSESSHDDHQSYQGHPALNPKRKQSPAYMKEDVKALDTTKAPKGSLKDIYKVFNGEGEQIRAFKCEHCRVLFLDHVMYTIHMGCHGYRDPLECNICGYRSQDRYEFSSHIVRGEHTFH
T4 sequence (Q96SW2 whole entry): as the sequence (Q96SW2 whole entry) above
T4 sequence (Q16531 whole entry partner): as the sequence (Q16531 whole entry partner) above
Outline: as §1

CK1α = molecular target: T5, CK1α (Homo sapiens, UniProt P48729+Q96SW2); assay: Western blot degradation of CK1α in hPBMCs (24 h)
T5 construct: The supernatant was aspirated as the extracted total cell protein; endogenous in cells; host or cells: human peripheral blood mononuclear cells (hPBMCs)
Outline: as §1

IKZF1 = molecular target: T6, IKZF1 (Homo sapiens, UniProt Q13422+Q96SW2); assay: Western blot degradation of IKZF1 in hPBMCs (24 h)
T6 construct: The supernatant was aspirated as the extracted total cell protein; endogenous in cells; host or cells: human peripheral blood mononuclear cells (hPBMCs)
T6 sequence (Q13422 whole entry): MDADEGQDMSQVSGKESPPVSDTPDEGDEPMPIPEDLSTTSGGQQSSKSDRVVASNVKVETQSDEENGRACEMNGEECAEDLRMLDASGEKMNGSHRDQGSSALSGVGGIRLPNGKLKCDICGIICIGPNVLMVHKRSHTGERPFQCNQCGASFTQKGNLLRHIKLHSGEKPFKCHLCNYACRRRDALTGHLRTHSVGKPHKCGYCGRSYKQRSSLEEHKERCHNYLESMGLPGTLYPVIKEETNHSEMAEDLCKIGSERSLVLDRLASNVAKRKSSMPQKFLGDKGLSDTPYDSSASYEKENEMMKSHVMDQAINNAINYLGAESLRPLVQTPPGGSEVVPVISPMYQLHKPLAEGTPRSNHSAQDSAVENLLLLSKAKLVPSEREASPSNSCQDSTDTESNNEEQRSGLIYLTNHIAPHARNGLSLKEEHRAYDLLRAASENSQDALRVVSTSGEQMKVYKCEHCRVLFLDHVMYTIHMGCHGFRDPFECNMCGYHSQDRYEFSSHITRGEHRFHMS
T6 sequence (Q96SW2 whole entry): as the sequence (Q96SW2 whole entry) above
T6 sequence (Q16531 whole entry partner): as the sequence (Q16531 whole entry partner) above
Outline: as §1

| SMILES | GSPT1 substrate protein remaining % (GSPT1) | IKZF3 substrate protein remaining % (IKZF3) | WEE1 substrate protein remaining % (WEE1) | IKZF2 substrate protein remaining % (IKZF2) | CK1α substrate protein remaining % (CK1α) | IKZF1 substrate protein remaining % (IKZF1) |
| --- | --- | --- | --- | --- | --- | --- |
| Cc1nc(N2CCN(Cc3ccc4c(c3)C(=O)N(N3CCC(=O)NC3=O)C4=O)CC2)c2c3c(sc2n1)CCC3 [GT-08104, 2-(2,4-dioxotetrahydropyrimidin-1(2H)-yl)-5-((4-(2-methyl-6,7-dihydro-5H-cyclopenta[4,5]thieno[2,3-d]pyrimidin-4-yl)piperazin-1-yl)methyl)isoindoline-1,3-dione] | A (0% ≤ substrate protein remaining % ≤80%) | A (0% ≤ substrate protein remaining % ≤80%) | A (0% ≤ substrate protein remaining % ≤80%) | A (0% ≤ substrate protein remaining % ≤80%) | B (80%< substrate protein remaining % ≤100%) | B (80%< substrate protein remaining % ≤100%) |
| Cc1nc(C2=CCN(Cc3ccc4c(c3)CN(N3CCC(=O)NC3=O)C4=O)CC2)c2c3c(sc2n1)CCC3 [GT-08437, 1-(5-((4-(2-methyl-6,7-dihydro-5H-cyclopenta[4,5]thieno[2,3-d]pyrimidin-4-yl)-3,6-dihydropyridin-1(2H)-yl)methyl)-1-oxoisoindolin-2-yl)dihydropyrimidine-2,4(1H,3H)-dione] | A (0% ≤ substrate protein remaining % ≤80%) | A (0% ≤ substrate protein remaining % ≤80%) | A (0% ≤ substrate protein remaining % ≤80%) | B (80%< substrate protein remaining % ≤100%) | B (80%< substrate protein remaining % ≤100%) | A (0% ≤ substrate protein remaining % ≤80%) |
| O=C1CCN(N2C(=O)c3ccc(CN4CCC(c5ccc(F)cc5)CC4)cc3C2=O)C(=O)N1 [GT-06878, 2-(2,4-dioxotetrahydropyrimidin-1(2H)-yl)-5-((4-(4-fluorophenyl)piperidin-1-yl)methyl)isoindoline-1,3-dione] | A (0% ≤ substrate protein remaining % ≤80%) | B (80%< substrate protein remaining % ≤100%) | B (80%< substrate protein remaining % ≤100%) | B (80%< substrate protein remaining % ≤100%) | A (0% ≤ substrate protein remaining % ≤80%) | B (80%< substrate protein remaining % ≤100%) |
| O=C1CCN(N2Cc3cc(CN4CCC(N5C(=O)COc6cc(F)ccc65)CC4)ccc3C2=O)C(=O)N1 [GT-07586, 1-(5-((4-(7-fluoro-3-oxo-2,3-dihydro-4H-benzo[b][1,4]oxazin-4-yl)piperidin-1-yl)methyl)-1-oxoisoindolin-2-yl)dihydropyrimidine-2,4(1H,3H)-dione] | A (0% ≤ substrate protein remaining % ≤80%) | B (80%< substrate protein remaining % ≤100%) | A (0% ≤ substrate protein remaining % ≤80%) | B (80%< substrate protein remaining % ≤100%) | B (80%< substrate protein remaining % ≤100%) | A (0% ≤ substrate protein remaining % ≤80%) |
| O=C1CCN(N2Cc3cc(CN4CCC(c5cccc6c(F)cccc56)CC4)ccc3C2=O)C(=O)N1 [GT-07589, 1-(5-((4-(5-fluoronaphthalen-1-yl)piperidin-1-yl)methyl)-1-oxoisoindolin-2-yl)dihydropyrimidine-2,4(1H,3H)-dione] | A (0% ≤ substrate protein remaining % ≤80%) | B (80%< substrate protein remaining % ≤100%) | B (80%< substrate protein remaining % ≤100%) | B (80%< substrate protein remaining % ≤100%) | B (80%< substrate protein remaining % ≤100%) | B (80%< substrate protein remaining % ≤100%) |
| COc1ccc(N2CCN(Cc3ccc4c(c3)C(=O)N(N3CCC(=O)NC3=O)C4=O)CC2)cc1 [GT-06728, 2-(2,4-dioxotetrahydropyrimidin-1(2H)-yl)-5-((4-(4-methoxyphenyl)piperazin-1-yl)methyl)isoindoline-1,3-dione] | B (80%< substrate protein remaining % ≤100%) | A (0% ≤ substrate protein remaining % ≤80%) | B (80%< substrate protein remaining % ≤100%) | A (0% ≤ substrate protein remaining % ≤80%) | A (0% ≤ substrate protein remaining % ≤80%) | B (80%< substrate protein remaining % ≤100%) |
| CC1(C)CN(Cc2ccc3c(c2)C(=O)N(N2CCC(=O)NC2=O)C3=O)CCN1C(c1ccccc1)c1ccccc1 [GT-06385, 5-((4-benzhydryl-3,3-dimethylpiperazin-1-yl)methyl)-2-(2,4-dioxotetrahydropyrimidin-1(2H)-yl)isoindoline-1,3-dione] | A (0% ≤ substrate protein remaining % ≤80%) | A (0% ≤ substrate protein remaining % ≤80%) | A (0% ≤ substrate protein remaining % ≤80%) | B (80%< substrate protein remaining % ≤100%) | B (80%< substrate protein remaining % ≤100%) | B (80%< substrate protein remaining % ≤100%) |
| O=C1CCN(N2C(=O)c3ccc(CN4CCN(c5nc6c(c(N7CCOCC7)n5)SCC6)CC4)cc3C2=O)C(=O)N1 [GT-08451, 2-(2,4-dioxotetrahydropyrimidin-1(2H)-yl)-5-((4-(4-morpholino-6,7-dihydrothieno[3,2-d]pyrimidin-2-yl)piperazin-1-yl)methyl)isoindoline-1,3-dione] | B (80%< substrate protein remaining % ≤100%) | A (0% ≤ substrate protein remaining % ≤80%) | B (80%< substrate protein remaining % ≤100%) | B (80%< substrate protein remaining % ≤100%) | A (0% ≤ substrate protein remaining % ≤80%) | B (80%< substrate protein remaining % ≤100%) |
| O=C1CCN(N2C(=O)c3ccc(CN4CCN(c5cccc(Cl)c5Cl)CC4)cc3C2=O)C(=O)N1 [GT-04854, 5-((4-(2,3-dichlorophenyl)piperazin-1-yl)methyl)-2-(2,4-dioxotetrahydropyrimidin-1(2H)-yl)isoindoline-1,3-dione] | A (0% ≤ substrate protein remaining % ≤80%) | B (80%< substrate protein remaining % ≤100%) | A (0% ≤ substrate protein remaining % ≤80%) | A (0% ≤ substrate protein remaining % ≤80%) | B (80%< substrate protein remaining % ≤100%) | A (0% ≤ substrate protein remaining % ≤80%) |
| O=C1CCN(N2C(=O)c3ccc(CN4CCC(N5CCOc6cc(F)ccc65)CC4)cc3C2=O)C(=O)N1 [GT-07682, 2-(2,4-dioxotetrahydropyrimidin-1(2H)-yl)-5-((4-(7-fluoro-2,3-dihydro-4H-benzo[b][1,4]oxazin-4-yl)piperidin-1-yl)methyl)isoindoline-1,3-dione] | A (0% ≤ substrate protein remaining % ≤80%) | B (80%< substrate protein remaining % ≤100%) | B (80%< substrate protein remaining % ≤100%) | B (80%< substrate protein remaining % ≤100%) | B (80%< substrate protein remaining % ≤100%) | B (80%< substrate protein remaining % ≤100%) |
| NCc1ccc2c(c1)C(=O)N(N1CCC(=O)NC1=O)C2=O [GT-07968, 5-(aminomethyl)-2-(2,4-dioxotetrahydropyrimidin-1(2H)-yl)isoindoline-1,3-dione] | B (80%< substrate protein remaining % ≤100%) | A (0% ≤ substrate protein remaining % ≤80%) | A (0% ≤ substrate protein remaining % ≤80%) | A (0% ≤ substrate protein remaining % ≤80%) | A (0% ≤ substrate protein remaining % ≤80%) | A (0% ≤ substrate protein remaining % ≤80%) |
| O=C1CCN(N2C(=O)c3ccc(CN4CCC(c5c[nH]c6ncccc56)CC4)cc3C2=O)C(=O)N1 [GT-07582, 5-((4-(1H-pyrrolo[2,3-b]pyridin-3-yl)piperidin-1-yl)methyl)-2-(2,4-dioxotetrahydropyrimidin-1(2H)-yl)isoindoline-1,3-dione] | A (0% ≤ substrate protein remaining % ≤80%) | B (80%< substrate protein remaining % ≤100%) | A (0% ≤ substrate protein remaining % ≤80%) | A (0% ≤ substrate protein remaining % ≤80%) | B (80%< substrate protein remaining % ≤100%) | A (0% ≤ substrate protein remaining % ≤80%) |
